For one test, the target named is T1, muscarinic M2 receptor (Cavia porcellus, UniProt H0VRN8).
T1 construct: left atria were excised to prepare tissue specimens; from tissue; host or cells: isolated guinea pig left atrium (male Hartley)
T1 sequence (H0VRN8 1-466): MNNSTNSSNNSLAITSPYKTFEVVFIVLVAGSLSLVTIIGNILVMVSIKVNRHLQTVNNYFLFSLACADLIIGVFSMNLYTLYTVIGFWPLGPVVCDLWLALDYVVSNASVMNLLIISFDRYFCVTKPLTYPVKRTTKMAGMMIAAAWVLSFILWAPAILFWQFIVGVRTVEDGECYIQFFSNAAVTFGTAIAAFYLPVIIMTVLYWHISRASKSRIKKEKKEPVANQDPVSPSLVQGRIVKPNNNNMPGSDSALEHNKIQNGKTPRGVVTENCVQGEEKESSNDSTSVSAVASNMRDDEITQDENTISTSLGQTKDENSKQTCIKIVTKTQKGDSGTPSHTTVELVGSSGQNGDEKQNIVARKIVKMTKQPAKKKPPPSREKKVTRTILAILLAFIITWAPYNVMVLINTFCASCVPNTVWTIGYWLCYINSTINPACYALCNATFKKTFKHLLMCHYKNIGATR
Description: Muscarinic M2 antagonistic action in isolated guinea pig left atrium (carbachol-induced relaxation, Schild method). The note with it: compound applied 30 minutes before carbachol. The format is cell-based. The method, then:
Muscarinic M2 Antagonistic Action in Isolated Guinea Pig Left Atrium […] Each tissue specimen was kept warm at 37° C., suspended with a resting tension of 0.5 g in a 5-mL Magnus bath filled with a Krebs carbonate buffer bubbled with 95% O2/5% CO2. Then, contraction evoked by field electrical stimulation (4 Hz, 2 msec, 1.5×threshold potential) was measured. After a stabilization period of 60 minutes, carbachol-induced relaxation was isometrically measured and recorded by the cumulative method from 10^−8 M with an interval of 90 seconds for one concentration in an equal ratio of 3. After the measurement, the tissue specimen was immediately washed, and left for 45 minutes as a stabilization period before the next observation. The tissue specimen of which EC50 for the carbachol-induced relaxation was stabilized was considered as a control. Each test compound was applied 30 minutes before the addition of carbachol. The affinity (pA2) of the test compound was obtained in the same manner as in the case of the trachea.

Test [1] concerns Bronchoconstriction in Guinea Pigs (induced with acetylcholine). Description: Effect on bronchoconstriction in guinea pigs (via inhalation administration), Konzett method. The format is in vivo. The note with it: guinea pig, intratracheal administration 10 μL g/head, 24 hours after administration, acetylcholine 4 μg/kg i.v., versus control group; for inhibition in vivo at 0.01 mg: Cavia porcellus, iv, read-out: Percent of inhibition of bronchoconstriction (%). The method, then:
Effect on Bronchoconstriction in Guinea Pigs (Via Inhalation Administration)
The test was performed according to the method of Konzett et al. (Arch. Exp. Path Pharmak., 1940, 195, 71-74). Male Hartley guinea pigs (350 to 600 g) were anesthetized with urethane (1.8 g/kg, i.p.), and then a cannula for drug administration was inserted into each left jugular vein. After the immobilization with decamethonium (2 mg/kg, i.v.), a tracheal cannula was inserted, and controlled respiration was attained by a respirator (Harvard). Bronchoconstriction was measured as changes of airway pressure with a pressure transducer (Nihon Kohden Corp.). Each test compound was administered (10 μL g/head) from dissected trachea by using a device for intratracheal administration of liquid for guinea pigs (Penn Century), and after suture, the animals were returned to usual breeding. After 24 hours, acetylcholine (4 μg/kg, i.v.) was administered to induce bronchoconstriction, and inhibitory activity on bronchoconstriction was calculated as percent inhibition comparing to the change of airway pressure in control group was obtained.

In the next test the target is T2, muscarinic M3 receptor (Cavia porcellus, UniProt H0W1Z3).
T2 construct: trachea was excised, and cut at every two tracheal cartilages to prepare tissue specimens; from tissue; host or cells: isolated guinea pig trachea (male Hartley)
T2 sequence (H0W1Z3 1-590): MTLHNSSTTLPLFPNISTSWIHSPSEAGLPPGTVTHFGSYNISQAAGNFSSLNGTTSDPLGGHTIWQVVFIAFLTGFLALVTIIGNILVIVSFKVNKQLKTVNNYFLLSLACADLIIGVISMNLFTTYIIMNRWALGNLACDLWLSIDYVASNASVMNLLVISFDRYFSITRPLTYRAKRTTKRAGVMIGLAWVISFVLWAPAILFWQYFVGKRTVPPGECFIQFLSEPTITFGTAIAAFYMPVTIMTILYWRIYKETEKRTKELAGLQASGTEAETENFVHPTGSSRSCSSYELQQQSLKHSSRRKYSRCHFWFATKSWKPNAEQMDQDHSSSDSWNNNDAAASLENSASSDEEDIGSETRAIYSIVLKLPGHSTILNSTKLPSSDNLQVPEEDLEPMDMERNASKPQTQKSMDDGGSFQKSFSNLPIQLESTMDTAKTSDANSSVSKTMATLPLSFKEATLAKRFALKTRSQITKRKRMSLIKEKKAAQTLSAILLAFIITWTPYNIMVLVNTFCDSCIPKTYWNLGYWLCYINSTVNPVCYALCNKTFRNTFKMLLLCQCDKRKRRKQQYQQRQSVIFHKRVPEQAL
Description: Muscarinic M3 antagonistic action in isolated guinea pig trachea (carbachol-induced contraction, Schild method). The note with it: compound applied 15 minutes before carbachol. The format is cell-based. The method, then: Muscarinic M3 Antagonistic Action in Isolated Guinea Pig Trachea
Male Hartley guinea pigs (350 to 600 g) were sacrificed by bleeding, and trachea was excised, and cut at every two tracheal cartilages to prepare tissue specimens. Each tissue specimen was kept warm at 37° C., suspended with a resting tension of 1 g in a 5-mL Magnus bath filled with a Krebs carbonate buffer containing indomethacin (1 μM) bubbled with 95% O2/5% CO2, and left for 60 minutes as a stabilization period. […] After the measurement, the tissue specimen was immediately washed, and left for 60 minutes as a stabilization period before the next contraction reaction, and the tissue specimen of which EC50 for the carbachol-induced contraction reaction was stabilized was considered as a control. Each test compound was applied 15 minutes before the addition of carbachol. The affinity (pA2) of the test compound was obtained by the Schild method (Arunlakshana, O. and Schild, H. O., Brit. J. Pharmacol., 1959, 14, 48-58).

The mark [2] stands for this setting: isolated guinea pig left atrium.
The mark [3] stands for this setting: pA2 Left atrium M2, isolated guinea pig left atrium.
Where [4] appears, read: pA2 Trachea M3, isolated guinea pig trachea.
[5] abbreviates: isolated guinea pig left atrium, read-out: pA2 Left atrium M2 (converted).
Where [6] appears, read: isolated guinea pig trachea, read-out: pA2 Trachea M3 (converted).

Where two headings read alike, the source gives them in different places.

Take `Cc1n(Cc2ccc(F)cc2)cc[n+]1[C@H]1CC[C@@H](C(C(N)=O)(c2ccccc2)c2ccccc2)C1.[Br-]` (relative stereo) [Example 7, 3-(cis-3-(Carbamoyl(diphenyl)methyl)cyclopentyl)-1-(4-fluoro-benzyl)-2-methyl-1-3H-imidazol-1-ium bromide]: the “pA2 Left atrium M2” value on muscarinic M2 receptor (setting [2]) is 8.5. Also, in test [1], the “Percent of inhibition of bronchoconstriction (%)” value (shortened to “Percent of inhibition … (%)”) is 90%. Also, the “pA2 Trachea M3” value at muscarinic M3 receptor (isolated guinea pig trachea) worked out at 9.6.
As to `Cc1cccc(C[n+]2ccn([C@H]3CC[C@@H](C(C(N)=O)(c4ccccc4)c4ccccc4)C3)c2C)c1` (relative stereo) [Example 8, 3-(cis-3-(Carbamoyl(diphenyl)methyl)cyclopentyl)-2-methyl-1-(3-methyl-benzyl)-3H-imidazol-1-ium bromide], the Kb is 10 nM at muscarinic M2 receptor (setting [3]) and 0.316 nM at muscarinic M3 receptor (setting [4]). The inhibition in vivo at 0.01 mg in test [1] was found to be 90%.
Consider `Cc1n(CC2CO2)cc[n+]1[C@H]1CC[C@@H](C(C(N)=O)(c2ccccc2)c2ccccc2)C1.[Br-]` (relative stereo) [Example 22], for which the “pA2 Left atrium M2” value at muscarinic M2 receptor (setting [2]) is 7.7. Moreover, the “Percent of inhibition … (%)” value in test [1] turned out to be 80%. Moreover, at muscarinic M3 receptor (isolated guinea pig trachea), the “pA2 Trachea M3” value is listed as 9.
Consider `COCC[n+]1ccn([C@H]2CC[C@@H](C(C(N)=O)(c3ccccc3)c3ccccc3)C2)c1C` (relative stereo) [Example 26, 3-(cis-3-(Carbamoyl(diphenyl)methyl)cyclopentyl)-1-(2-methoxy-ethyl)-2-methyl-3H-imidazol-1-ium bromide], for which the figures for the Kb on muscarinic M2 receptor (setting [3]) and at muscarinic M3 receptor (setting [4]) were 12.6 nM and 0.2 nM, respectively. The inhibition in vivo at 0.01 mg in test [1] worked out at 70%.
As to `Cc1n([C@H]2CC[C@@H](C(C(N)=O)(c3ccccc3)c3ccccc3)C2)cc[n+]1CC1CC1` (relative stereo) [Example 30, 3-(cis-3-(Carbamoyl(diphenyl)methyl)cyclopentyl)-1-cyclopropylmethyl-2-methyl-3H-imidazol-1-ium bromide], the inhibition in vivo at 0.01 mg in test [1] is 80%.
Take `Cc1n([C@H]2CC[C@@H](C(C(N)=O)(c3ccccc3)c3ccccc3)C2)cc[n+]1CC[C@H]1CO1.[Br-]` (relative stereo) [Example 36, 3-(cis-3-(Carbamoyl(diphenyl)methyl)cyclopentyl)-2-methyl-1-(2-(S)-oxiranyl-ethyl)-3H-imidazo-1-ium bromide]: the “pA2 Left atrium M2” value on muscarinic M2 receptor (setting [2]) stood at 7.7. Moreover, in test [1], the “Percent of inhibition … (%)” value is 90%. The “pA2 Trachea M3” value at muscarinic M3 receptor (isolated guinea pig trachea) came to 9.
For the compound `Cc1n([C@H]2CC[C@@H](C(C(N)=O)(c3ccccc3)c3ccccc3)C2)cc[n+]1C(F)F` (relative stereo) [Example 37, 3-(cis-3-(Carbamoyl(diphenyl)methyl)cyclopentyl)-1-difluoromethyl-2-methyl-3H-imidazol-1-ium bromide], the inhibition in vivo at 0.01 mg in test [1] is 80%. In addition, the Kb on muscarinic M3 receptor (setting [4]) was 0.794 nM.
With `Cc1n([C@H]2CC[C@@H](C(C(N)=O)(c3ccccc3)c3ccccc3)C2)cc[n+]1CC1CCC1` (relative stereo) [Example 40, 3-(cis-3-(Carbamoyl(diphenyl)methyl)cyclopentyl)-1-cyclobutylmethyl-2-methyl-3H-imidazol-1-ium bromide], the values for the Kb at muscarinic M2 receptor (setting [3]) and on muscarinic M3 receptor (setting [4]) were 7.94 nM and 0.398 nM, respectively. The inhibition in vivo at 0.01 mg in test [1] was 100%.
As to `CC1=[N+](C)CCN1[C@H]1CC[C@@H](C(C(N)=O)(c2ccccc2)c2ccccc2)C1` (relative stereo) [Example 56, 3-(cis-3-(Carbamoyl(diphenyl)methyl)cyclopentyl)-1,2-dimethyl-4,5-dihydro-3H-imidazol-1-ium iodide], the Kb at muscarinic M2 receptor (setting [3]) is 31.6 nM; on muscarinic M3 receptor (setting [4]) it was 2.51 nM. In addition, in test [1], the inhibition in vivo at 0.01 mg was determined as 100%.
Regarding `COCC[n+]1ccn([C@@H]2CC[C@H](C(C(N)=O)(c3ccccc3)c3ccccc3)C2)c1C` [Example 77, 3-((1R,3S)-3-(Carbamoyl(diphenyl)methyl)cyclopentyl)-1-(2-methoxyethyl)-2-methyl-3H-imidazol-1-ium para-toluenesulfonate], the Kb on muscarinic M2 receptor (setting [5]) is 6.31 nM; on muscarinic M3 receptor (setting [6]) it was 0.251 nM.
On to `C=C(CC)[n+]1ccn([C@H]2CC[C@@H](C(C(N)=O)(c3ccccc3)c3ccccc3)C2)c1C.[Br-]` [Example 78, 3-((1S,3R)-3-(Carbamoyl(diphenyl)methyl)cyclopentyl)-1-buten-2-yl-2-methyl-3H-imidazol-1-ium bromide], for which the “pA2 Left atrium M2” value at muscarinic M2 receptor (setting [2]) came out at 7.9. The “pA2 Trachea M3” value on muscarinic M3 receptor (isolated guinea pig trachea) came out at 9.2.
On to `Cc1n([C@H]2CC[C@@H](C(C(N)=O)(c3ccccc3)c3ccccc3)C2)cc[n+]1CCC(C)C` [Example 79, 3-((1S,3R)-3-(Carbamoyl(diphenyl)methyl)cyclopentyl)-2-methyl-1-(3-methyl-butyl)-3H-imidazol-1-ium bromide], for which the Kb at muscarinic M2 receptor (setting [3]) was 63.1 nM; on muscarinic M3 receptor (setting [4]), 0.631 nM.
On to `CC#CC[n+]1ccn([C@H]2CC[C@@H](C(C(N)=O)(c3ccccc3)c3ccccc3)C2)c1C` [Example 82], for which the Kb on muscarinic M2 receptor (setting [3]) is 63.1 nM; on muscarinic M3 receptor (setting [4]), 0.794 nM.
`Cc1n([C@H]2CC[C@@H](C(C(N)=O)(c3ccccc3)c3ccccc3)C2)cc[n+]1CCO.[Br-]` [Example 84, 3-((1S,3R)-3-(Carbamoyl(diphenyl)methyl)cyclopentyl)-1-hydroxyethyl-2-methyl-3H-imidazol-1-ium bromide]: the “pA2 Left atrium M2” value at muscarinic M2 receptor (setting [2]) was found to be 6.3. In addition, the “pA2 Trachea M3” value at muscarinic M3 receptor (isolated guinea pig trachea) worked out at 8.2.
In the case of `Cc1n([C@H]2CC[C@@H](C(C(N)=O)(c3ccccc3)c3ccccc3)C2)cc[n+]1Cc1ccc(F)cc1` [Example 85, 3-((1S,3R)-3-(Carbamoyl(diphenyl)methyl)cyclopentyl)-1-(4-fluorobenzyl)-2-methyl-3H-imidazol-1-ium bromide], the results for the Kb on muscarinic M2 receptor (setting [3]) and at muscarinic M3 receptor (setting [4]) were 31.6 nM and 0.794 nM, respectively.
For `Cc1n([C@@H]2CC[C@H](C(C(N)=O)(c3ccccc3)c3ccccc3)C2)cc[n+]1C(F)F` [Example 92, 3-((1R,3S)-3-(Carbamoyl(diphenyl)methyl)cyclopentyl)-1-difluoromethyl-2-methyl-3H-imidazol-1-ium bromide], the Kb is 12.6 nM on muscarinic M2 receptor (setting [3]) and 0.398 nM on muscarinic M3 receptor (setting [4]).
As for `Cc1n([C@H]2CC[C@@H](C(C(N)=O)(c3ccccc3)c3ccccc3)C2)cc[n+]1C` [Example 94, 3-((1S,3R)-3-(Carbamoyl(diphenyl)methyl)cyclopentyl)-1,2-dimethyl-3H-imidazol-1-ium para-toluenesulfonate], the values for the Kb on muscarinic M2 receptor (setting [5]) and on muscarinic M3 receptor (setting [6]) were 100 nM and 0.794 nM, respectively.
`CC(C)[N+]1(C)[C@@H]2CC[C@H]1C[C@@H](OC(=O)C(CO)c1ccccc1)C2` (stereo partly drawn) [Ipratropium, reference compound]: the Kb at muscarinic M2 receptor (setting [3]) is 3.98 nM; on muscarinic M3 receptor (setting [4]), 1 nM.

The values above are taken from patent publication US20100152261A1 (MITSUBISHI TANABE PHARMA CORPORATION, priority 2005, published 2010).
